A word on the GI50: it is the concentration at which growth is held to half of that of the control.

The source of these data is patent US12409162B2, “Carbazole derivatives sensitizing cells to anti-cancer agents” (CENTRE NATIONAL DE LA RECHERCHE SCIENTIFIQUE, priority 2019, dated 2025).

Data set [1] has as its system HeLa cells. Briefly: Prestoblue cell viability assay on HeLa cells (compounds alone and with paclitaxel). In kind it is cell-based. Conditions: HeLa cells; for GI50: Homo sapiens, HeLa, 72 h, compound alone, read-out: GI50 (50% of growth inhibition). How it is done: Cell viability was analyzed using the colorimetric Prestoblue assay (Invitrogen, #A13262). Cells were seeded in 96 well microplates (Greiner, #655077) at a density of 2,500 cells per well and allowed to adhere for 24 h before being treated for 72 h with either DMSO (0.1% final concentration) or drugs at indicated concentrations. After the 72 h treatment, 10 μL A Prestoblue was added to each well and cells were incubated for another 45 min. The absorbance of each well was measured using FLUOstar Optima microplate reader (Excitation, 544 nm; Emission, 580 nm).
First, the cytotoxicity on HeLa cells of compounds (I-a), (I-c) (I-f), (I-h), (I-e), (I-m), (I-n) and (I-s) was assessed with the above described “prestoblue” assay.
Then, HeLa cells were treated during 72 hours with different concentrations of a mixture of paclitaxel (0.05, 0.1, 0.25, 0.5, 1, 2.5, 5 nM) and compounds (I-a), (I-f), (I-h), (I-e), (I-m), (I-n), (I-c) and (I-s).

For data set [2], the system named is microtubule dynamics in GFP-EB3 transfected cells. Briefly: Microtubule dynamic instability by time-lapse fluorescence microscopy. In kind it is cell-based. The conditions noted are these: 25 μM. On the procedure:
The effect of a high dose (25 μM) of compound (I-a) on microtubule dynamic instability parameters was measured using time-lapse fluorescence microscopy on GFP-EB3 transfected cells (Table 1).

Data set [3] relates to HeLa cells. Briefly: Immunofluorescence of microtubules and DNA. The format is cell-based. On the procedure: The effect of a compound of formula (I) on cell cycle and mitosis of HeLa cells was analyzed by flow cytometry and immunofluorescence.
For immunofluorescence analysis, cells were grown for 48 hours on glass coverslips placed in 24-wells microplates. When cells reached 70% confluence the medium was replaced with a fresh one supplemented with compound (I-a). After a 5-hour exposure to compound (I-a), cells were fixed and permeabilized with −20° C. absolute methanol for 6 min. After washing and saturation with 3% BSA/PBS, cells were incubated for 45 min at room temperature (RT) with anti-alpha-tubulin antibody (1:4000). Cells were washed twice again and subsequently incubated with Alexa 488 conjugated anti-mouse antibody (1:1000) for 30 min at RT. DNA was stained with 20 μmol·L^−1 Hoechst 33342 and coverslips were mounted on microscopic slides with Mowiol 4-88 (Calbiochem, #475904). Images were captured with a Zeiss AxioimagerM2 microscope equipped with the acquisition software AxioVision and analyzed using the Fiji software.

Data set [4] relates to HeLa cells. Briefly: Cell cycle distribution by flow cytometry. In kind it is cell-based. The conditions noted are these: HeLa. How it is done:
For flow cytometry analysis, Hela cells were treated with the indicated concentrations of compound (I-a) for 12 hours, 24 hours and 48 hours. Cells were then harvested and washed by centrifugation in PBS. Then, 10^5 cells were fixed in 1 mL of 70% methanol at 4° C. overnight. Following two washes with PBS the cells were incubated with 50 μg·mL^−1 propidium iodide and 0.2 mg·mL^−1 RNase A/PBS for 30 min at 37° C. before analysis. The percentage of cells in the specific cell-cycle phases (G0, G1, S, G2, and M) was determined using an Accuri C6 flow cytometer (Becton Dickinson). The results are expressed as the mean±SD of three separate experiments. The significance was determined by a Student's t-test (*p<0.05, **p<0.01, ***p<0.0001, compared with the control). Flow cytometry analysis was performed using HeLa cells. […] The results are expressed as the mean±SD of three separate experiments. The significance was determined by a Student's t-test (*p<0.05, **p<0.01, ***p<0.0001, compared with the control).
(In general: A flow cytometer gives signals particle by particle.)

The subject of the next data set is RPE-1 cells. Briefly: Prestoblue viability assay on non-cancerous RPE-1 cells. The format is cell-based. On the procedure:
RPE-1 cells were incubated for 72 hours with the indicated combinations of compound (I-a)/paclitaxel. The percentage of viable cells was calculated following a Prestoblue assay, as described above. Data are presented as mean±SEM of 3 independent experiments.

Data set [5] deals with HeLa cells. The data set is described as follows: FITC Annexin V apoptosis assay by flow cytometry. The format is cell-based. How it is done:
Apoptosis assay was performed with FITC Annexin V Apoptosis Detection Kit I (BD Biosciences, #556547) using flow cytometry and analyzed by FCS express software.

In the next data set the test system is 4T1 cells. The data set is described as follows: Prestoblue cell viability assay on murine cancer cells. The format is cell-based. Conditions: mice breast cancer cell line (4T1 cells), 72 h. How it is done:
Cell viability was analyzed using the colorimetric Prestoblue assay (Invitrogen, #A13262). Cells were seeded in 96 well microplates (Greiner, #655077) at a density of 2,500 cells per well and allowed to adhere for 24 h before being treated for 72 h with either DMSO (0.1% final concentration) or drugs at indicated concentrations. After the 72 h treatment, 10 μL Prestoblue was added to each well and cells were incubated for another 45 min. The absorbance of each well was measured using FLUOstar Optima microplate reader (Excitation, 544 nm; Emission, 580 nm).

For another data set, the system named is HeLa cell tumors. Briefly: HeLa cell xenograft tumor growth in mice. In kind it is in vivo. On the procedure: The effects on tumor growth of compound (I-a) and paclitaxel injected separately to the effect of a combined administration of compound (I-a) plus paclitaxel were compared in a tumor mouse model.
A first series of experiments (not shown) assessed that HeLa cell tumors were sensitive to therapeutic doses of paclitaxel. To that aim, mice bearing sizable tumors, formed of HeLa cells that have been xenografted, received intraveinous (i.v.) injections of paclitaxel (from 2 to 8 mg/Kg), every two days during 10 days. In the same experiment, the effect of compound (I-a) (from 15 to 60 mg/Kg, i.v.) injected with the same schedule was analyzed. […] The results confirmed the anti-tumor effect of high paclitaxel concentrations in this model. They also indicate that compound (I-a), when applied alone, has no significant anti-tumor activity, even at high concentrations.
A second experiment was conducted to study of the effect on tumor size of low (2 to 3 mg/Kg) paclitaxel doses in combination with different concentrations of compound (I-a).
Protocol for this combination study: 72 NMRI nude mice (5-week-old females) were injected subcutaneously with 10×10^6 exponentially dividing HeLa cells into the right flank. When tumors have reached a volume of about 200 mm 3 i.e. nine days after cell injection, mice were randomized in 9 groups of 8 mice each and drugs were injected intraveinously every two days. The first group received paclitaxel at 2 mg/kg, the second group received paclitaxel at 3 mg/Kg, the third group received compound (I-a) at 40 mg/Kg, the fourth group received compound (I-a) at 60 mg/Kg, the fifth group received a combination of compound (I-a) (40 mg/Kg) and paclitaxel (2 mg/Kg), the sixth group received a combination of compound (I-a) (40 mg/Kg) and paclitaxel (3 mg/Kg), the seventh group received a combination of compound (I-a) (60 mg/Kg) and paclitaxel (2 mg/Kg), the eight group received a combination of compound (I-a) (60 mg/Kg) and paclitaxel (3 mg/Kg) and the ninth group received the vehicle (14% DMSO, 14% Tween 80 and 72% PBS). Tumor growth was monitored three times per week with a sliding caliper.

Structures are written as SMILES.

On to `Cc1cc(-n2ccc(C=O)c2)c(C)c2c1[nH]c1ccc(Cl)cc12` [(I-c)], for which the GI50 in the data set on HeLa cells [1] amounted to 2 µM.

On to `Cc1cc(-n2cccc2)c(C)c2c1[nH]c1cc(Cl)ccc12` [(I-e)], for which, in the data set on HeLa cells [1], the 50% growth inhibitory concentration (GI50) turned out to be 14.8 µM.

As to `Cc1cc(-n2cccc2)c(C)c2c1[nH]c1ccc(Br)cc12` [(I-f)], in the data set on HeLa cells [1], the GI50 was determined as 16.2 µM.

In the case of `Cc1cc(-n2cccc2)c(C)c2c1[nH]c1ccc(Cl)cc12` [Compound (I-a)], in data set [2], the “% time spent growing” value is recorded as 60.40 ± 0.25 %, the “% time spent in pause” value came out at 39.60 ± 0.31 %, the “Catastrophe frequency (min^−1 ± SE)” value stood at 2.74 ± 0.70 min⁻¹ and the “Growth rate (μm/min ± SE)” value stood at 10.20 ± 0.05 μm/min. Besides, in data set [2] (distance-based), the “Catastrophe frequency (μm^−1 ± SE)” value is reported as 0.46 ± 0.05 *** μm^−1. Further, in the data set on HeLa cells [3] (12 μM), the “chromosome congression in mitotic cells” value is given as “chromosome congression defects were visible in several mitotic cells”. Also, the “chromosome congression in mitotic cells” value in the data set on HeLa cells [3] (25 μM) was “occurrence of such defects was increased”. In addition, the “effect on microtubule network in interphase cells” value in the data set with HeLa cells [3] (12-25 μM, 5-hour exposure) is given as “does not visibly perturb microtubule network”. In addition, the cell cycle effect result with HeLa cells [4] (compound (I-a) 12 μM) is listed as “blocked in G2/M phase”. Also, the cell cycle effect result in the data set with HeLa cells [4] (compound (I-a) 25 μM) is “the large majority of the cells is blocked in prometaphase”. The “cytotoxicity of the compound on its own” value with HeLa cells [1] (12 μM) is “not cytotoxic”. The GI50 in the data set with HeLa cells [1] is 19.4 to 21.8 µM. For the same compound, the “toxicity toward non-cancerous cells” value with RPE-1 cells (72 hours) is listed as “does not induce additional toxicity”. The “effect on cell viability in combination with PTX” value in the data set on RPE-1 cells (compound at 25 μM) is “able to synergistically affect cell viability”. The “effect on cell apoptosis when combined with paclitaxel” value in the data set with HeLa cells [5] was “synergistic effect”. For the same compound, in the data set with 4T1 cells, the “effect of the combination with paclitaxel on cell viability” value is given as “synergistic effect”. Also, the tumor size entry in the data set on HeLa cell tumors (combination study, each compound administered separately (paclitaxel 2 or 3 mg/Kg, (I-a) 40 or 60 mg/Kg)) is reported as “no effect”. Besides, the tumor size entry with HeLa cell tumors (first experiment, compound (I-a) alone 15 to 60 mg/Kg i.v. every two days) is listed as “did not induce a significant effect on tumor size”. Moreover, the “weight of treated animals versus vehicle-treated animals” value in the data set with HeLa cell tumors (first experiment, paclitaxel 2 to 8 mg/Kg or (I-a) 15 to 60 mg/Kg i.v. every two days during 10 days) was “not significantly different”.

For `Cc1cc(-n2ccc(C=O)c2)c(C)c2c1[nH]c1ccc(Br)cc12` [Compound (I-h)], the concentration for 50% growth inhibition (GI50) with HeLa cells [1] stood at 1.06 µM.

As to `Cc1cc(-n2ccc(CO)c2)c(C)c2c1[nH]c1ccc(Cl)cc12` [Compound (I-s)], in the data set on HeLa cells [1], the GI50 was 2 µM.
